{"source": "patent US20240382561A1", "about": "“GLUCOREGULATORY COMPOUND, COMPOSITION AND USES THEREOF” (THE HONG KONG POLYTECHNIC UNIVERSITY, priority 2021, published 2024)", "key": {"3T3-L1 adipocytes": {"test_system": "3T3-L1 adipocytes", "test": "2-NBDG glucose uptake in 3T3-L1 adipocytes", "assay_type": "cell-based", "settings": "inhibitor 1 μM; for effect of co-treatment on CYSTM1-induced glucose uptake: 3T3-L1 cells, CYSTM1 1 μM", "description": "(§1) To determine whether CYSTM1 can increase glucose uptake in adipocytes, in vitro assays of 2-NBDG uptake in response to CYSTM1 treatment and potential inhibitors in 3T3-L1 adipocytes and mouse primary adipocytes were performed. 3T3-L1 preadipocytes were maintained in Dulbecco's modified Eagle's medium (DMEM) supplemented with 10% fetal bovine serum. Two days after confluence, 3T3-L1 cells were induced to differentiation using the standard adipogenic cocktail (0.5 mM IBMX, 1 μM dexamethasone and 10 μg/ml insulin) that was applied for 4 days and followed by 10 μg/ml insulin treatment for additional 4 days. The culture medium was changed every other day. The differentiated cells were maintained in normal serum containing DMEM. Mouse primary adipocytes were isolated from 10 to 12-week-old male C57BL/6J mice using a collagenase digestion protocol as described, briefly, white fat pads were removed, minced and digested using collagenase for 60-90 min at 37° C. in Krebs-Ringers phosphate HEPES buffer (KRPH) (15 mM HEPES, pH 7.4, 118 mM NaCl, 4.8 mM KCl, 1.2 mM MgSO4, 1.3 mM CaCl2, 1.2 mM KHPO3, 0.1% BSA). The stromal vascular fraction was separated from the adipocytes and cultured using DMEM and differentiated the same as 3T3-L1 adipocytes as described above. For glucose uptake, differentiated 3T3-L1 adipocytes and primary adipocytes are plated at 10,000 cells/well in 96-well plates and fasted overnight with low glucose serum-free medium (DMEM with 0.25% BSA) DMEM and 2-NBDG (Cayman Chemical) was performed as follow: briefly, 3T3-L1 cells were washed twice with warm (37° C.) KRPH buffer, and adipocytes were either untreated or treated with different concentration of CYSTM1 (1 nM, 10 nM, 100 nM and 1000 nM) for 1 h in KRPH buffer containing 400 nM of 2-NBDG. NBDG uptake was measured using a fluorescent microplate reader (Thermo Scientific Varioskan LUX Multimode Microplate Reader)."}, "mouse primary adipocytes": {"test_system": "mouse primary adipocytes", "test": "2-NBDG glucose uptake in mouse primary adipocytes", "assay_type": "cell-based", "settings": "inhibitor 1 μM; for effect of co-treatment on CYSTM1-induced glucose uptake: primary adipocytes, CYSTM1 1 μM", "description": "as §1"}, "[1]": {"test_system": "MIN6 pancreatic beta cell", "test": "Insulin secretion in MIN6 cells with GLP-1R antagonist exendin (9-39)", "assay_type": "cell-based, mouse", "settings": "exendin (9-39) 10 nM"}}}
{"compound": "Cc1cccc([C@@H](CO)NC(=O)[C@@H](C)N2Cc3ccc(-c4nc(NC5CCOCC5)ncc4Cl)cc3C2=O)c1", "note": "[ERK1/2 inhibitor 1]", "values": [{"measurement": "effect of co-treatment on CYSTM1-induced glucose uptake", "setting": "3T3-L1 adipocytes", "result": "blocked"}, {"measurement": "effect of co-treatment on CYSTM1-induced glucose uptake", "setting": "mouse primary adipocytes", "result": "blocked"}]}
{"compound": "CCn1c(-c2nonc2N)nc2c(C#CC(C)(C)O)ncc(OC[C@H]3CCCNC3)c21", "note": "[GSK690693]", "values": [{"measurement": "inhibition of CYSTM1-induced increase in glucose uptake", "setting": "3T3-L1 adipocytes; 3T3-L1 adipocytes, 5 μM, 10 μM, CYSTM1 1 μM (FIG. 8B)", "result": "inhibited by the dose-dependent manner"}, {"measurement": "effect of co-treatment on CYSTM1-induced glucose uptake", "setting": "3T3-L1 adipocytes", "result": "blocked"}, {"measurement": "inhibition of CYSTM1-induced increase in glucose uptake", "setting": "mouse primary adipocytes; mouse primary adipocytes, 5 μM, 10 μM, CYSTM1 1 μM (FIG. 8D)", "result": "inhibited by the dose-dependent manner"}, {"measurement": "effect of co-treatment on CYSTM1-induced glucose uptake", "setting": "mouse primary adipocytes", "result": "blocked"}]}
{"compound": "exendin (9-39)", "values": [{"measurement": "inhibition of CYSTM1 activity (insulin secretion) by the antagonist", "setting": "[1]; CYSTM1 10 nM", "result": "did not inhibit CYSTM1 activity"}, {"measurement": "inhibition of glucose-induced insulin secretion of GLP-1 by the antagonist", "setting": "[1]; GLP-1 10 nM", "result": "inhibited"}]}
{"compound": "glucagon-like peptide 1 [GLP-1]", "values": [{"measurement": "glucose-induced insulin secretion of GLP-1 in presence of exendin (9-39)", "setting": "[1]; GLP-1 10 nM", "result": "inhibited by exendin (9-39)"}]}
